Measurements from patent publication US20240182472A1, “INDAZOLE PYRIDONE COMPOUNDS AND USES THEREOF” (Bluejay Therapeutics, Inc., priority 2022, published 2024).

What was measured:
HBV S-antigen secretion = experiment: HBsAg assay (HepG2 HBV S-antigen secretion biological assay); type: cell-based; settings: Hepatitis B virus, HepG2.2.15, 72 h, read-out: EC50, HBV S-antigen secretion
Method: HepG2.2.15 cells were grown in flasks microscopically and seeded into 96-well plates at a concentration of 6.0×10^4 cells/well and incubated at 37° C., 5% CO2 overnight.
Source plate preparation. The stock concentration of reference compound and test compounds is 20 mM. Firstly, manually diluted the compound to obtain the first concentration points of 10 μM and 200 μM, respectively. Then a 3-fold, 8 points serial dilution is performed to obtain the 200× source plate.
Source plate compounds were pipetted as follows: 3 μL 200× source plate compounds into sterile 2 mL 96 well plate which contain 297 μL 2% FBS Medium, mix well and transfer 100 μL/well to corresponding cell culture plates. Therefore, the test conditions of the final compounds is 1 μM initiation, 3-fold serial dilution, and 8 concentration points in duplicate.
Incubate the cells at 37° C., 5% CO2 for three days.
24 hours post-seeding, the cells were treated with 200 μl/well of media containing serially diluted compounds in DMSO. DMSO alone was used as the no drug control. The final DMSO concentration in all wells was 0.5%.
The HBsAg kit (Auto Biology-CL 0310) was used to determine the level of secreted HBVsAg. The HBSAg assay was performed as follows: • a) Blance the ELISA kit at room temperature for 30 minutes. • b) Add 50 μL standard solution, sample, positive and negative control to each well of the microplate in the kit. • c) Add 50 μL HBsAg enzyme conjugate to each well. • d) Attach the plate membrane, oscillate for 60 seconds, and incubate at 37° C. for 60 minutes. • e) Add 350 μL washing buffer to each well, shake slightly, discard liquid, repeat 6 times. Then pat 5 times on an absorbent paper towel to dry the hole. • f) Add 50 μL mixture of reagent A and B to each well. Oscillate the microplate for 10 seconds. • g) Cover the plate membrane and incubate at room temperature for 10 minutes. Read the luminescent signal using Biotek-Synergy 2.
Compounds inhibition against HBsAg at different concentrations are calculated by the following formula:
Inhibition %=(1−value of sample/ave. value of control)×100
50% effective concentrations (EC50) and were calculated with the GraphPad Prism software.

[1] = In vivo pharmacokinetic study, oral, plasma and liver, rat; design: species or system Sprague Dawley rats; settings: for Observed level of "active metabolite" AUC0→last, Liver / Observed level of "active metabolite" AUC0→last, Plasma: active metabolite I.6 released after oral prodrug 32 mpk, Sprague-Dawley rats, n = 3; for concentrations of the dosed prodrug itself in plasma and tissue: single PO administration at 32 mg/kg in male SD rats, PK parameters not determined
Method: The compounds of this invention were tested orally administered in a formulation of 25% PEG 400: 10% solutol: 65% water with a 5 mL/Kg solution across species of CD-1 mice, C57BL/J6 mice, or Sprague Dawley rats following IACUC guidelines. The rat PK of Compound I.9 and Compound I.10 PO dose of 32 mpk exemplifies the methodology used across species.
The purpose of this rat PK study was to determine the pharmacokinetics of Compound I.9, Compound I.6 and Compound I.10 in plasma following oral gavage administration of Compound I.9 and Compound I.10 to male SD rats. For PO groups, the liver and plasma concentration were measured at 1, 2, 6 and 10 h post-dose. Concentrations of Compound I.9, Compound I.6 and Compound I.10 in plasma and tissue samples were determined by a liquid chromatography tandem mass spectrometry (LC-MS/MS) method. Oral (PO) Dose—Groups 1 and 2 Compound I.9 was prepared as a clear solution in 25% PEG400+10% Solutol+65% water (Adjust the final pH to 7˜8). Groups 3 and 4 Compound I.10 was prepared as a homogeneous suspension in 25% PEG400+10% Solutol+65% water (Adjust the final pH to 7˜8). Blood (about 0.2 mL) was collected at each time point via jugular vein puncture from each study animal into a tube A. The following 4-mix stabilizer for esterase inhibition was added into a pre-chilled commercial tube B containing potassium (K2) EDTA (0.85-1.15 mg) in advance. Then the blood in the tube A will be accurately transferred (4-mix stabilizer: blood, 1:10 (v:v)) into the tube B and placed on wet ice until centrifugation.
The following 4-mix stabilizer was added into the cold homogenizing buffer (MeOH/15 mM PBS 1:2) in advance. Then each tissue was weighed and added the cold homogenizing buffer with stabilizer at the ratio of 1:9 (1 g tissue with 9 mL buffer), then homogenized on wet ice. The tissue homogenate was kept at −60° C. or lower until LC-MS/MS analysis.
Bioanalytical Analysis The concentrations of Compound I.9, Compound I.6 and Compound I.10 in plasma and tissue were determined by using an LC-MS/MS method. Instrumentation and conditions for
Compound I.9, Compound I.10 and Compound I.6 in plasma and tissue homogenate. • LC parameters • Equipment: ACQUITY UPLC System • Analytical column: ACQUITY UPLC HSS T3 1.8 μm 2.1×50 mm • Inject volume: 5 μL for plasma; 3.5 μL for tissue homogenate • Mobile phase A: 0.1% FA & 2 mmol/L HCOONH4 in water/ACN (v/v, 95:5) • Mobile phase B: 0.1% FA & 2 mmol/L HCOONH4 in ACN/water (v/v, 95:5) • Elution Mode: Gradient
• Mass spectrometer: Triple Quad 6500 plus • Ionization mode: ESI (+) • Detective mode: MRM

Compound	EC50 (HBV S-antigen secretion)	Observed level of "active metabolite" AUC0→last, Liver [1]	Observed level of "active metabolite" AUC0→last, Plasma [1]	concentrations of the dosed prodrug itself in plasma and tissue [1]
CCCCCCCOC(=O)CCCCCCOc1cccc2c3n(nc12)C[C@@H](C(C)(C)C)n1cc(C(=O)O)c(=O)cc1-3 [I.4, (R)-6-(tert-butyl)-10-((7-(heptyloxy)-7-oxoheptyl)oxy)-2-oxo-6,7-dihydro-2H-pyrido[2′,1′:3,4]pyrazino[1,2-b]indazole-3-carboxylic acid]	14 nM			
CC(C)OC(=O)CCCCCCCOc1cccc2c3n(nc12)C[C@@H](C(C)(C)C)n1cc(C(=O)O)c(=O)cc1-3 [I.9, (R)-6-(tert-butyl)-10-((8-isopropoxy-8-oxooctyl)oxy)-2-oxo-6,7-dihydro-2H-pyrido[2′,1′:3,4]pyrazino[1,2-b]indazole-3-carboxylic acid]	5.3 ± 0.9 nM	29367 ng·h/g	290 ng·h/g	most concentrations were below the lower limit of quantitation
CC(C)(C)[C@@H]1Cn2nc3c(OCCCCCCCCC(=O)O)cccc3c2-c2cc(=O)c(C(=O)O)cn21 [I.13, (R)-6-(tert-butyl)-10-((8-carboxyoctyl)oxy)-2-oxo-6,7-dihydro-2H-pyrido[2′,1′:3,4]pyrazino[1,2-b]indazole-3-carboxylic acid]	1.2 ± 0.5 nM			
CC(C)(C)[C@@H]1Cn2nc3c(OCCCCCC(=O)O)cccc3c2-c2cc(=O)c(C(=O)O)cn21 [I.1, (R)-6-(tert-butyl)-10-((5-carboxypentyl)oxy)-2-oxo-6,7-dihydro-2H-pyrido[2′,1′:3,4]pyrazino[1,2-b]indazole-3-carboxylic acid]	25.5 nM			
CCCCOC(=O)CCCCCCCOc1cccc2c3n(nc12)C[C@@H](C(C)(C)C)n1cc(C(=O)O)c(=O)cc1-3 [I.10, (R)-10-((8-butoxy-8-oxooctyl)oxy)-6-(tert-butyl)-2-oxo-6,7-dihydro-2H-pyrido[2′,1′:3,4]pyrazino[1,2-b]indazole-3-carboxylic acid]	4 ± 0.8 nM	19444 ng·h/g	146 ng·h/g	most concentrations were below the lower limit of quantitation
CCOC(=O)CCCCCCOc1cccc2c3n(nc12)C[C@@H](C(C)(C)C)n1cc(C(=O)O)c(=O)cc1-3 [I.3, (R)-6-(tert-butyl)-10-((7-ethoxy-7-oxoheptyl)oxy)-2-oxo-6,7-dihydro-2H-pyrido[2′,1′:3,4]pyrazino[1,2-b]indazole-3-carboxylic acid]	11.8 nM			
CCOC(=O)CCCCCCCOc1cccc2c3n(nc12)C[C@@H](C(C)(C)C)n1cc(C(=O)O)c(=O)cc1-3 [I.7, (R)-6-(tert-butyl)-10-((8-ethoxy-8-oxooctyl)oxy)-2-oxo-6,7-dihydro-2H-pyrido[2′,1′:3,4]pyrazino[1,2-b]indazole-3-carboxylic acid]	7.1 nM			
